Reference: patent publication US10829487B2, “Benzylamino substituted pyridopyrimidinones and derivatives as SOS1 inhibitors” (Boehringer Ingelheim International GmbH, priority 2017, dated 2020)

Target: protein-protein interaction between SOS1 and KRAS G12D (Homo sapiens (Human), UniProt Q07889)
Test: KRAS::SOS1 AlphaScreen Binding Assay
Source text: KRAS::SOS1 AlphaScreen Binding Assay
Low IC50 values are indicative of high potency of the SOS1 inhibitor compound in this assay setting:
Reagents: • GST-tagged SOS1 (564_1049_GST_TEV_ECO) produced in-house • GST-TEV-SOS1 (564-1049) is purchased from Viva Biotech Ltd. • 6×His-Tev-K-RasG12D(1-169)Avi is purchased from Xtal BioStructures, Inc. (Lot # X129-110) • GDP (Sigma Cat No G7127) • AlphaLISA Glutathione Acceptor Beads (PerkinElmer, Cat No AL109) • AlphaScreen Streptavidin Donor Beads (PerkinElmer Cat No 6760002) • Assay plates: Proxiplate-384 PLUS, white (PerkinElmer, Cat No 6008289)
10 nM (final assay concentration) KRAS G12D, 10 μM (final assay concentration) GDP and 5 nM (final assay concentration) GST-SOS1 are mixed in assay buffer prior to use and kept at room temperature.
AlphaLISA Glutathione Acceptor Beads and AlphaScreen Streptavidin Donor Beads are mixed in assay buffer at a concentration of 10 μg/mL (final assay concentration) each prior to use and kept at room temperature.
Compounds are diluted to a final start concentration of 100 μM and are tested in duplicate. Assay-ready plates (ARPs) are generated using an Access Labcyte Workstation with a Labcyte Echo 550 or 555 accoustic dispenser. For compound a start concentration of 100 μM, 150 nL of compound solution is transferred per well in 11 concentrations in duplicate with serial 1:5 dilutions.
The assay is run using a fully automated robotic system in a darkened room below 100 Lux. 10 μL of KRAS::SOS1 GDP mix is added into columns 1-24 to the 150 nL of compound solution (final dilution in the assay 1:100, final DMSO concentration 1%).
After a 30 minute incubation time 5 μL of bead mix is added into columns 1-23. Plates are kept at room temperature in a darkened incubator. After a further 60 minute incubation, the signal is measured using a PerkinElmer Envision HTS Multilabel Reader using the AlphaScreen specifications from PerkinElmer. Each plate contains the following controls: • diluted DMSO+KRAS::SOS1 GDP mix+bead mix • diluted DMSO+KRAS::SOS1 GDP mix
IC50 values are calculated and analyzed using a 4 parametric logistic model.

[1] = Table 20, KRAS::SOS1 AlphaScreen (SOS1 / KRAS G12D)
[2] = KRAS G12D::SOS1 AlphaScreen, measured without EDTA unless marked with an asterisk

protein-protein interaction between SOS1 and KRAS G12D, sequence (Q07889 564-1049, stated change not applied): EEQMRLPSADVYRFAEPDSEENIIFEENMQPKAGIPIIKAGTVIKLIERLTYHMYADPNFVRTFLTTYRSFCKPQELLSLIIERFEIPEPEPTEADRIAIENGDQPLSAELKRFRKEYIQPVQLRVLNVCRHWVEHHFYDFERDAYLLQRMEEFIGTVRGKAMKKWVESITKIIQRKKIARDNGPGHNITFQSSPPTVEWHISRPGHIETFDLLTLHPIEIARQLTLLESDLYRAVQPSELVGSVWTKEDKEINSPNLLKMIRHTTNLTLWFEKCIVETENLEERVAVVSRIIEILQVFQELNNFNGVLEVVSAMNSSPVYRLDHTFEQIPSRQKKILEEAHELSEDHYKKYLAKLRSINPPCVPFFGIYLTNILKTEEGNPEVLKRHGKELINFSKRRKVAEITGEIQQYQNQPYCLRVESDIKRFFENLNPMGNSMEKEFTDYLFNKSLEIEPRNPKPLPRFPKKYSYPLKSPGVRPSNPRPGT

SMILES | IC50 [1] [nM] | IC50 [2] [nM]
Cc1nc(N[C@H](C)c2cccc(C(F)(F)F)c2C)c2cn(C3(C)CCC3)c(=O)cc2n1 [I-42] | 9 | –
Cc1c(=O)n(C2CC23CC3)cc2c(N[C@H](C)c3cccc(C(F)F)c3F)ncnc12 (stereo partly drawn) [I-167] | – | 36
Cc1c(=O)n(C23CC(F)(C2)C3)cc2c(N[C@H](C)c3cccc(C(F)(F)C(C)(C)O)c3F)ncnc12 [I-178] | – | 5
Cc1nc(N[C@H](C)c2cccc(C(C)(F)F)c2)c2cn(C3(C(F)F)CC3)c(=O)cc2n1 [I-99] | 7 | –
Cc1nc(N[C@H](C)c2cccc(C(F)(F)F)c2)c2cn(C3CC3)c(=O)cc2n1 [I-26] | 37 | –
C[C@@H](Nc1ncnc2cc(=O)n(C3(C(F)(F)F)CCOC3)cc12)c1cccc(C(F)F)c1F (stereo partly drawn) [I-72] | 11 | –
C[C@@H](Nc1ncnc2cc(=O)n(C3(C)CC3)cc12)c1cccc2c1CCC2=O [I-105] | – | 25
Cc1nc(N[C@H](C)c2cccc(C(F)(F)F)c2C)c2cn([C@H]3[C@@H]4COC[C@@H]43)c(=O)cc2n1 [I-40] | 9 | –
C[C@@H](Nc1ncnc2cc(=O)n(C34CCC(CC3)C4)cc12)c1cccc2c1CCC2=O [I-109] | – | 6
Cc1nc(N[C@H](C)c2cccc(C(F)(F)F)c2F)c2cn([C@H]3CCOC3)c(=O)cc2n1 [I-34] | 39 | –
Cc1nc(N[C@H](C)c2cccc(C(F)(F)C3CCCO3)c2)c2cn(C3(C(F)F)CC3)c(=O)c(F)c2n1 (stereo partly drawn) [I-93] | 3 | –
Cc1c(=O)n(C2(C)CC2)cc2c(N[C@H](C)c3cccc(C(C)(F)F)c3F)ncnc12 [I-174] | – | 9
Cc1nc(N[C@H](C)c2cccc(C(F)(F)F)c2)c2cn(C3(C)CCN(C)CC3)c(=O)cc2n1 [I-114] | – | 26
Cc1nc(N[C@H](C)c2cccc(C(F)(F)F)c2F)c2cn([C@H]3[C@@H]4COC[C@@H]43)c(=O)cc2n1 [I-32] | 12 | –
Cc1nc(N[C@H](C)c2cccc(C(F)(F)F)c2C)c2cn(C3(C)CC(F)(F)C3)c(=O)cc2n1 [I-46] | 31 | –
Cc1c(=O)n([C@H]2C[C@H](F)C2)cc2c(N[C@H](C)c3cccc(C(F)F)c3F)ncnc12 [I-168] | – | 9
Cc1c(=O)n(C2(CF)CC2)cc2c(N[C@H](C)c3cccc(C(F)F)c3F)ncnc12 [I-162] | – | 7
Cc1nc(N[C@H](C)c2cccc(C(F)(F)C3CCCO3)c2)c2cn(C3(C)CC3)c(=O)c(F)c2n1 (stereo partly drawn) [I-92] | 4 | –
Cc1nc(N[C@H](C)c2cccc(C(F)(F)F)c2)c2cn(C3(C)CCCOC3)c(=O)cc2n1 (stereo partly drawn) [I-113] | – | 39
Cc1nc(N[C@H](C)c2cccc(C(F)(F)F)c2)c2cn(C3CCOCC3)c(=O)cc2n1 [I-31] | 11 | –

SMILES | IC50 [1] [nM] | IC50 [2] [nM]
C[C@@H](Nc1ncnc2cc(=O)n(C34CC(C3)C4)cc12)c1cccc2c1CCC2=O [I-107] | – | 17
Cc1nc(N[C@H](C)c2cccc(C(F)(F)[C@@H]3CCCO3)c2F)c2cn(C3(C)CC3)c(=O)c(F)c2n1 [I-94] | 5 | –
Cc1nc(N[C@H](C)c2cccc(C(F)(F)F)c2C)c2cn([C@H]3C[C@@H](O)C3)c(=O)cc2n1 [I-44] | 12 | –
Cc1nc(N[C@H](C)c2cccc(C(F)(F)F)c2C)c2cn(C3CCC3)c(=O)cc2n1 [I-41] | 14 | –
Cc1nc(N[C@H](C)c2cccc(C(F)(F)F)c2)c2cn(C3CCCCC3)c(=O)cc2n1 [I-29] | 24 | –
Cc1nc(N[C@H](C)c2cccc(C(F)(F)F)c2)c2cn(C3CCC(F)(F)CC3)c(=O)cc2n1 [I-30] | 39 | –
Cc1nc(N[C@H](C)c2cccc(C(F)(F)C(C)(C)O)c2F)c2cn(C34CC(F)(C3)C4)c(=O)c(F)c2n1 [I-91] | 4 | –
Cc1nc(N[C@H](C)c2cccc(C(F)(F)F)c2F)c2cn([C@@H]3CCOC3)c(=O)cc2n1 [I-33] | 38 | –
Cc1nc(N[C@H](C)c2cccc(C(F)(F)F)c2C)c2cn([C@H]3C[C@H](O)C3)c(=O)cc2n1 [I-43] | 5 | –
C[C@@H](Nc1ncnc2cc(=O)n(C3(CF)CC3)cc12)c1cccc(C(C)(F)F)c1F [I-77] | 6 | –
Cc1nc(N[C@H](C)c2cccc3c2CCC3(F)F)c2cn(C34CCN(CC3)C4)c(=O)c(C)c2n1 [I-160] | – | 2
Cc1nc(N[C@H](C)c2cccc3c2CCC3(F)F)c2cn(C34CCN(CC3)C4)c(=O)cc2n1 [I-60] | 2 | –
C[C@@H](Nc1ncnc2cc(=O)n(C3CC34CC4)cc12)c1cccc(C(F)F)c1F (stereo partly drawn) [I-66] | 15 | –
Cc1nc(N[C@H](C)c2cccc(C(F)(F)F)c2)c2cn(C34CCC(CC3)C4)c(=O)cc2n1 [I-115] | – | 10
Cc1nc(N[C@H](C)c2cccc(C(F)(F)F)c2)c2cn(C(C)(C)C)c(=O)cc2n1 [I-110] | – | 25
Cc1c(=O)n(C2(CF)CC2)cc2c(N[C@H](C)c3cccc(C(C)(F)F)c3F)ncnc12 [I-175] | – | 13
Cc1nc(N[C@H](C)c2cccc(C(F)(F)F)c2)c2cn(C3CCCC3)c(=O)cc2n1 [I-28] | 27 | –
Cc1nc(N[C@H](C)c2cccc(C(F)(F)F)c2F)c2cn(C3CCOCC3)c(=O)cc2n1 [I-35] | 9 | –
Cc1c(=O)n(C2(C(F)(F)F)CC2)cc2c(N[C@H](C)c3cccc(C(F)F)c3F)ncnc12 [I-164] | – | 13
Cc1nc(N[C@H](C)c2cccc(C(F)(F)F)c2C)c2cn([C@H]3C[C@@](O)(C(F)(F)F)C3)c(=O)cc2n1 [I-48] | 27 | –

Other lines, results leading:

IC50 [1] [nM] | IC50 [2] [nM] | SMILES
5 | – | Cc1nc(N[C@H](C)c2cccc(C(F)F)c2F)c2cn(C3(C)CCC3)c(=O)cc2n1 [I-11]
10 | – | Cc1nc(N[C@H](C)c2cccc(C(F)F)c2C)c2cn(C34CCC(C(=O)N(C)C)(CC3)C4)c(=O)cc2n1 [I-24]
7 | – | C[C@@H](Nc1ncnc2cc(=O)n(C34CC(C3)C4)cc12)c1cccc(C(F)F)c1F [I-70]
8 | – | Cc1nc(N[C@H](C)c2cccc(C(F)F)c2F)c2cn(C3(c4ccncc4)CC3)c(=O)cc2n1 [I-7]
– | 3 | Cc1nc(N[C@H](C)c2cccc(C(F)F)c2F)c2cn(C34CCC(O)(CC3)CC4)c(=O)cc2n1 [I-122]
12 | – | CCC1(n2cc3c(N[C@H](C)c4cccc(C(F)F)c4F)nc(C)nc3cc2=O)CC1 [I-5]
5 | – | Cc1nc(N[C@H](C)c2cccc(C(F)F)c2F)c2cn(C3(C)CC3)c(=O)cc2n1 [I-1]
7 | – | C[C@@H](Nc1ncnc2cc(=O)n(C3(C)CC3)cc12)c1cccc(C(F)F)c1F [I-62]
– | 5 | Cc1nc(N[C@H](C)c2cccc(C(F)F)c2F)c2cn(C3(C)CC3)c(=O)c(C)c2n1 [I-155]
8 | – | C[C@@H](Nc1ncnc2cc(=O)n(C3(C(F)F)CC3)cc12)c1cccc(C(F)F)c1F [I-64]
40 | – | Cc1nc(N[C@H](C)c2cccc(C(F)(F)F)c2F)c2cn(C3(c4ccccc4)CCOCC3)c(=O)cc2n1 [I-36]
7 | – | Cc1nc(N[C@H](C)c2cccc(C(F)F)c2F)c2cn([C@H]3C[C@H](F)C3)c(=O)cc2n1 [I-12]
5 | – | Cc1nc(N[C@H](C)c2cccc(C(F)F)c2F)c2cn(C3CCOCC3)c(=O)cc2n1 [I-18]
– | 9 | Cc1nc(N[C@H](C)c2cccc(C(F)F)c2F)c2cn(C3(C(F)(F)F)CCOC3)c(=O)cc2n1 (stereo partly drawn) [I-117]
13 | – | Cc1nc(N[C@H](C)c2cccc(C(C)(F)F)c2F)c2cn(C3(C(F)(F)F)CC3)c(=O)cc2n1 [I-55]
– | 20 | Cc1nc(N[C@H](C)c2cccc(C(F)F)c2F)c2cn([C@@]3(C(F)(F)F)CCOC3)c(=O)cc2n1 [I-118]
15 | – | Cc1nc(N[C@H](C)c2cccc(C(C)(F)F)c2F)c2cn(C34CC(F)(C3)C4)c(=O)cc2n1 [I-56]
16 | – | Cc1nc(N[C@H](C)c2cccc(C(F)F)c2F)c2cn(C3(c4ccccc4)CC3)c(=O)cc2n1 [I-8]
7 | – | C[C@@H](Nc1ncnc2cc(=O)n(C3(CF)CC3)cc12)c1cccc(C(F)F)c1F [I-63]
– | 6 | Cc1nc(N[C@H](C)c2cccc(C(F)F)c2F)c2cn(C34CCC(CC3)CC4)c(=O)cc2n1 [I-120]
8 | – | Cc1nc(N[C@H](C)c2cccc(C(F)F)c2F)c2cn(C34CC(C3)C4)c(=O)cc2n1 [I-15]
5 | – | Cc1nc(N[C@H](C)c2cccc(C(F)F)c2F)c2cn(C3(C(F)F)CC3)c(=O)c(F)c2n1 [I-82]
30 | – | Cc1nc(N[C@H](C)c2cccc(C(F)F)c2F)c2cn(C3(c4ccc(F)cc4)CC3)c(=O)cc2n1 [I-9]
6 | – | COCC1(n2cc3c(N[C@H](C)c4cccc(C(F)F)c4F)nc(C)nc3cc2=O)CC1 [I-6]
4 | – | Cc1nc(N[C@H](C)c2cccc(C(F)F)c2F)c2cn(C3(CF)CC3)c(=O)cc2n1 [I-2]
2 | – | Cc1nc(N[C@H](C)c2cccc(C(F)F)c2F)c2cn(C34CCC(CC3)C4)c(=O)cc2n1 [I-19]
